Test results reported in PubChem BioAssay (NCI).
Values joined by “and” are separate entries in the source; they are usually repeats but may differ in a detail not shown here. Equal entries are not always repeated.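 A five-concentration, 48-hour dose response in 96-well plates underlies each endpoint, interpolated linearly between surrounding concentrations. The concentration for 50% growth inhibition is given as GI50. The concentration for full growth arrest is given as TGI.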

Experiments:
Assay in all cases: NCI-60 cell line screen, 48 h
[1] = system: SF-268 CNS
[2] = system: KM12 colon
[3] = system: HOP-62 NSCLC
[4] = system: MALME-3M melanoma
[5] = system: BT-549 breast
[6] = system: NCI/ADR-RES ovarian
[7] = system: EKVX NSCLC
[8] = system: NCI-H23 lung
[9] = system: ACHN renal
[10] = system: 786-0 renal

Structure (SMILES) | GI50 [1] | TGI [1] | GI50 [2] | TGI [2] | GI50 [3] | TGI [3] | GI50 [4] | TGI [4] | GI50 [5] | TGI [5] | GI50 [6] | TGI [6] | GI50 [7] | TGI [7] | GI50 [8] | TGI [8] | GI50 [9] | TGI [9] | GI50 [10] | TGI [10]
Cn1ncc(Cl)c1-c1cc(C(=O)N[C@H](CN)Cc2ccc(F)c(F)c2)oc1Cl | 3.36 µM and 2.08 µM | 17.1 µM and > 10 µM | 0.59 µM and 0.255 µM | 6.73 µM and 4.43 µM | 2.14 µM and 2.7 µM | 14 µM and > 10 µM | 0.36 µM and 0.687 µM | 1.61 µM and 2.59 µM | 0.511 µM and 0.412 µM | 3.71 µM and 3.02 µM | 10.2 µM and 2.94 µM | 24.5 µM and > 10 µM | 2.77 µM | > 10 µM | 5.17 µM and 2.44 µM | 19.7 µM and > 10 µM | 2.23 µM and 1.86 µM | 14.2 µM and > 10 µM | 0.0371 µM and 0.0295 µM | 3.79 µM and 2.1 µM
CN(C)C(=S)SCC(=O)Nc1ccccc1 |  | > 100 µM |  | > 100 µM |  | > 100 µM |  | > 100 µM |  | > 100 µM |  | > 100 µM |  | > 100 µM |  | > 100 µM |  | > 100 µM |  | > 100 µM
COc1cc2cc(Oc3ccc(NC(=O)Nc4ccc(Cl)c(Cl)c4)cc3)c(C)nc2cc1OC | 8.23 µM | > 100 µM | 3.22 µM | 13.4 µM | 3.55 µM | 11.9 µM | 3.02 µM | 7.72 µM | 2.4 µM | 11.7 µM | 2.6 µM | 16.9 µM | 2.36 µM | 9.51 µM | 3.36 µM | 15.9 µM | 3 µM | 12.1 µM | 3.64 µM | 17.7 µM
CC[n+]1c(/C=C/C=C2\N(C)c3ccccc3C2(C)C)sc2ccccc21 | 4.43 µM | 8.92 µM | 4.46 µM | 8.7 µM | 4.47 µM | 9.31 µM | 4.28 µM | 8.1 µM | 4.3 µM | 8.6 µM | 4.26 µM | 8.9 µM | 4.39 µM | 12.8 µM | 2.75 µM | 7.09 µM | 4.1 µM | 8.21 µM | 4.33 µM | 8.38 µM
O=S(=O)(c1cnccc1N1CCN(CCO)CC1)N1CCCC1 |  | > 100 µM |  | > 100 µM |  | > 100 µM |  | > 100 µM |  | > 100 µM |  | > 100 µM |  | > 100 µM |  | > 100 µM |  | > 100 µM |  | > 100 µM
CCN(CC)Cc1cc2[nH]c3c4ccc(Cl)cc4ncc3c2cc1OC | 3.33 µM and 2.9 µM | 10 µM and 9.2 µM | 2.18 µM and 1.72 µM | 7.09 µM and 4.37 µM | 5.41 µM and 2.01 µM | 11.7 µM and 9.34 µM | 1.72 µM and 1.99 µM | 3.33 µM and 3.75 µM | 13.7 µM and 16 µM | 27.2 µM and 29.6 µM | 3.67 µM and 3.31 µM | 13.5 µM and 12 µM | 12.1 µM and 11.8 µM | 24.9 µM and 24.4 µM | 6.07 µM and 3.33 µM | 20.3 µM and 14.4 µM | 5.68 µM and 1.98 µM | 16.3 µM and 4.98 µM | 2.2 µM and 2.59 µM | 4.82 µM and 5.61 µM
Cc1cc(Cl)nc(N(CCCNc2ccnc3cc(Cl)ccc23)Cc2ccco2)n1 | 3.83 µM | 31.1 µM | 2.79 µM | 11.5 µM | 1.59 µM | 5.65 µM | 2.21 µM | 5.58 µM | 2.16 µM | 6.47 µM | 1.76 µM | 6.87 µM | 2.18 µM | 7.73 µM | 1.98 µM | 7.68 µM | 3 µM | 12 µM | 1.91 µM | 4.61 µM
O=C1c2ccccc2C(=O)c2c(OCCOCCO)cccc21 |  | > 100 µM |  | > 100 µM |  | > 100 µM |  | > 100 µM |  | > 100 µM |  | > 100 µM |  | > 100 µM |  | > 100 µM |  | > 100 µM |  | > 100 µM
COc1ccc(N(C)c2nc(N)nc3sc4c(c23)CCCC4)cc1 | < 0.0159 µM | 14.5 µM | < 0.01 µM | 12 µM | 0.275 µM | 18.8 µM | < 0.0125 µM | 18.9 µM | 0.0123 µM | 10.5 µM | < 0.01 µM | 14.4 µM | < 0.01 µM | 18.7 µM | < 0.01 µM | 20.8 µM | < 0.01 µM | 14.6 µM | < 0.01 µM | 13.2 µM
CN1CSC(=S)N(Cc2ccccc2)C1 | 14.8 µM | 36.1 µM | 1.87 µM | 4.19 µM | 18.6 µM | > 100 µM | 15.4 µM | 37.4 µM | 17.1 µM | 70.1 µM | 28.2 µM | > 100 µM | 30.3 µM | > 100 µM | 14.1 µM | 36.6 µM | 14.1 µM | 27.1 µM | 12 µM | 44.2 µM
CN(Cc1cnc2nc(N)nc(N)c2n1)c1ccc(C(=O)NC(CCC(=O)O)C(=O)O)cc1Br (stereo not given) | < 0.01 µM | 13.1 µM | < 0.01 µM | 11.6 µM | < 0.01 µM |  | < 0.01 µM | 3.92 µM | < 0.01 µM | 2.5 µM | < 0.01 µM | > 100 µM | < 0.01 µM | 48.3 µM | < 0.01 µM | 2.12 µM | < 0.01 µM | > 100 µM | < 0.01 µM | 
c1ccc2c3c([nH]c2c1)C(c1ccc(C2NCCc4c2[nH]c2ccccc42)cc1)NCC3 (stereo not given) | 1.12 µM | 2.57 µM | 1.07 µM | 2.36 µM | 1.31 µM | 2.8 µM | 1.55 µM | 3.11 µM | 11.1 µM | 24.4 µM | 2.1 µM | 7.81 µM | 1.42 µM | 3.39 µM | 1.65 µM | 3.36 µM | 0.713 µM | 2 µM | 1.75 µM | 3.38 µM
O=C(Nc1nc2ccccc2s1)Nc1ccc([N+](=O)[O-])cc1Cl | 4.49 µM | 18.6 µM | 2.82 µM | 8.48 µM | 7.61 µM | 16.6 µM | 2.82 µM | 11.1 µM | 2.04 µM | 7.68 µM | 2.99 µM | 9.93 µM | 11 µM | 45.1 µM | 3.49 µM | 14.6 µM | 6.53 µM | 18 µM | 1.92 µM | 3.7 µM
CC[C@H](C)[C@H](NC(=O)CN(C)C)C(=O)N(C)[C@H](C[C@@H](OC(C)=O)c1nc(C(=O)NC23CC(C(=O)OC)(C2)C3)cs1)C(C)C | 0.831 µM | > 25 µM | 0.478 µM | > 25 µM | 2.97 µM | > 25 µM | > 6.28 µM | > 25 µM | 0.151 µM | > 13.9 µM | > 21.4 µM | > 25 µM | 1.53 µM | > 25 µM | 1.22 µM | > 25 µM | 2.28 µM | > 25 µM | 0.741 µM | > 25 µM
COc1cc2c(=O)[nH]c3cc([N+](=O)[O-])ccc3c2cc1[N+](=O)[O-] | 4.42 µM | 88 µM | 4.67 µM | > 100 µM | 7.38 µM | 36.2 µM | 9.91 µM | > 100 µM | 7.89 µM | > 100 µM | 5.29 µM | > 100 µM | 7.08 µM | > 100 µM | 3.69 µM | > 100 µM | 3.71 µM | 91.4 µM | 11.9 µM | > 100 µM
CN(CC(=O)N(Cc1ccc(C2CCCCC2)cc1)c1ccc(C(=O)O)cc1)S(=O)(=O)c1c(F)c(F)c(F)c(F)c1F | 1.85 µM | 3.59 µM | 2.94 µM | 9.01 µM | 2.09 µM | 4.59 µM | 1.7 µM | 3.64 µM | 2.23 µM | 4.36 µM | 2.14 µM | 5.26 µM | 1.63 µM | 3.58 µM | 1.92 µM | 3.81 µM | 1.74 µM | 3.15 µM | 2.28 µM | 5.22 µM
CCOC(=O)COc1ccc2c(C)cc(=O)oc2c1 |  | > 100 µM |  | > 100 µM |  | > 100 µM |  | > 100 µM |  | > 100 µM |  | > 100 µM |  | > 100 µM |  | > 100 µM |  | > 100 µM |  | > 100 µM
CC1=C(C(=O)Nc2ccc(Cl)c(C(=O)OC(C)C)c2)SCCO1 |  | > 89.9 µM |  | > 100 µM |  | > 100 µM |  | 92.2 µM |  | > 100 µM |  | > 91.8 µM |  | > 95.5 µM |  | 96.3 µM |  | > 100 µM |  | > 100 µM
COc1nnc2ccc(N3CCC(c4ccc(OCCN5CCN(C)C(=O)[C@H]5C)cc4)CC3)nn12 | 1.69 µM | > 100 µM | 0.322 µM | > 100 µM | 0.0875 µM | > 100 µM | 0.431 µM | > 100 µM | 1.87 µM | > 100 µM | 0.845 µM | > 100 µM | 0.239 µM | > 100 µM | 0.356 µM | > 100 µM | 0.172 µM | > 100 µM | 0.186 µM | > 100 µM
NC(=S)c1c(N)n(C2OC(CO)C(O)C2O)c2ncnc(N)c12 (stereo not given) | 0.425 µM | 4.52 µM | 0.258 µM | 9.61 µM | 0.21 µM | 0.904 µM | 0.426 µM | 2.23 µM | 0.17 µM | 0.475 µM | 0.276 µM | 1.27 µM | 0.345 µM | 11 µM | 0.258 µM | 1.14 µM | 0.268 µM | > 100 µM | 0.304 µM | 
N#CC1c2ccccc2C=CN1C(=O)N(c1ccccc1)c1ccccc1 (stereo not given) | 4.31 µM | 15.4 µM | 6.38 µM | 19.3 µM | 13.6 µM | 26.7 µM | 1.61 µM | 3.55 µM | 8.68 µM | 21.2 µM | 5.52 µM | 34 µM | 5.7 µM | 18.9 µM | 4.09 µM | 19.3 µM | 1.79 µM | 3.3 µM | 4.32 µM | 15.2 µM
COc1cc2nc3cc([N+](=O)[O-])ccc3c(NCCNCC(C)(C)O)c2cc1OC | 0.491 µM | 2.54 µM | 0.698 µM | 2.97 µM | 0.953 µM | 3.26 µM | 0.622 µM | 1.97 µM | 1.84 µM | 4.14 µM | 5.68 µM | 20.5 µM | 1.72 µM | 5.7 µM | 0.629 µM | 3.43 µM | 0.657 µM | 4.19 µM | 1.51 µM | 4.04 µM
C=CC(=O)N1CC2(CC(n3nc(-c4ccc5c(cnn5C)c4)c(-c4c(Cl)c(C)cc5[nH]ncc45)c3C)C2)C1 | 4.5 µM | 20 µM | 1.92 µM | 3.72 µM |  | 19.5 µM | 2.44 µM | 5.09 µM | 2.57 µM | 7.9 µM | 2.23 µM | 5.21 µM | 3.23 µM | 11.1 µM |  | 1.72 µM | 2.01 µM | 4.81 µM | 3.71 µM | 15.4 µM
Cc1cc(N2CCN(C)CC2)n2nc(-c3ccc(Cl)cc3)nc2n1 |  | > 100 µM |  | > 100 µM |  | > 100 µM |  | > 100 µM |  | > 100 µM |  | > 100 µM |  | > 100 µM |  | > 100 µM |  | > 100 µM |  | > 100 µM
